The test system of assay [1] is U-937. Briefly: Inhibition of 2-[1,2-3H(N)]deoxy-D-glucose uptake in human U937 cells at 73 uM by scintillation spectrometry in presence of buffer containing NaCl and Na2HPO4. The assay is classed as functional.
The test system of assay [2] is HL-60. Briefly: Inhibition of 2-[1,2-3H(N)]deoxy-D-glucose uptake in human HL60 cells at 75 uM by scintillation spectrometry in presence of buffer containing NaCl and Na2HPO4. The assay is classed as functional.
Assay [3] deals with U-937. Put plainly: Inhibition of 2-[1,2-3H(N)]deoxy-D-glucose uptake in human U937 cells by Michaelis-Menten plot. The format is functional, cell-based.
Assay [4] has as its system HL-60. Put plainly: Inhibition of 2-[1,2-3H(N)]deoxy-D-glucose uptake in human HL60 cells by Michaelis-Menten plot. The assay is classed as functional, cell-based.
In assay [5] the test system is U-937. Briefly: Inhibition of 2-[1,2-3H(N)]deoxy-D-glucose uptake in human U937 cells by scintillation spectrometry in presence of sodium-free buffer. The assay is classed as functional, cell-based.
For assay [6], the system named is HL-60. Briefly: Inhibition of 2-[1,2-3H(N)]deoxy-D-glucose uptake in human HL60 cells by scintillation spectrometry in presence of sodium-free buffer. The format is functional, cell-based.
Assay [7] relates to U-937. Put plainly: Inhibition of 2-[1,2-3H(N)]deoxy-D-glucose uptake in human U937 cells at >500 uM by scintillation spectrometry in presence of buffer containing NaCl and Na2HPO4. The assay is classed as functional.
In assay [8] the test system is HL-60. Put plainly: Inhibition of 2-[1,2-3H(N)]deoxy-D-glucose uptake in human HL60 cells at >500 uM by scintillation spectrometry in presence of buffer containing NaCl and Na2HPO4. The assay is classed as functional.
For assay [9], the system named is U-937. Put plainly: Inhibition of 2-[1,2-3H(N)]deoxy-D-glucose uptake in human U937 cells at >100 uM by scintillation spectrometry in presence of sodium-free buffer. The format is functional.
Assay [10] deals with HL-60. Put plainly: Inhibition of 2-[1,2-3H(N)]deoxy-D-glucose uptake in human HL60 cells at >100 uM by scintillation spectrometry in presence of sodium-free buffer. The assay is classed as functional.
Assay [11] has as its system U-937. Briefly: Inhibition of [14C]dehydroascorbic acid uptake in human U937 cells by scintillation spectrometry in presence of buffer containing NaCl and Na2HPO4. The assay is classed as functional, cell-based.
Assay [12] has as its system HL-60. Put plainly: Inhibition of [14C]dehydroascorbic acid uptake in human HL60 cells by scintillation spectrometry in presence of buffer containing NaCl and Na2HPO4. The assay is classed as functional, cell-based.
The test system of assay [13] is U-937. Put plainly: Inhibition of [14C]dehydroascorbic acid uptake in human U937 cells at 38 uM by scintillation spectrometry in presence of buffer containing NaCl and Na2HPO4. The assay is classed as functional.
Assay [14] deals with HL-60. Briefly: Inhibition of [14C]dehydroascorbic acid uptake in human HL60 cells at 32 uM by scintillation spectrometry in presence of buffer containing NaCl and Na2HPO4. The assay is classed as functional.
The test system of assay [15] is U-937. Briefly: Inhibition of [14C]dehydroascorbic acid uptake in human U937 cells by Michaelis-Menten plot. The format is functional, cell-based.
In assay [16] the test system is U-937. Briefly: Inhibition of [14C]dehydroascorbic acid uptake in human U937 cells by scintillation spectrometry in presence of sodium-free buffer. The assay is classed as functional, cell-based.
For assay [17], the system named is HL-60. Briefly: Inhibition of [14C]dehydroascorbic acid uptake in human HL60 cells by scintillation spectrometry in presence of sodium-free buffer. The format is functional, cell-based.
For assay [18], the target named is T1, Solute carrier family 2, facilitated glucose transporter member 1 (Rattus norvegicus) (UniProt P11167).
T1 sequence (whole entry): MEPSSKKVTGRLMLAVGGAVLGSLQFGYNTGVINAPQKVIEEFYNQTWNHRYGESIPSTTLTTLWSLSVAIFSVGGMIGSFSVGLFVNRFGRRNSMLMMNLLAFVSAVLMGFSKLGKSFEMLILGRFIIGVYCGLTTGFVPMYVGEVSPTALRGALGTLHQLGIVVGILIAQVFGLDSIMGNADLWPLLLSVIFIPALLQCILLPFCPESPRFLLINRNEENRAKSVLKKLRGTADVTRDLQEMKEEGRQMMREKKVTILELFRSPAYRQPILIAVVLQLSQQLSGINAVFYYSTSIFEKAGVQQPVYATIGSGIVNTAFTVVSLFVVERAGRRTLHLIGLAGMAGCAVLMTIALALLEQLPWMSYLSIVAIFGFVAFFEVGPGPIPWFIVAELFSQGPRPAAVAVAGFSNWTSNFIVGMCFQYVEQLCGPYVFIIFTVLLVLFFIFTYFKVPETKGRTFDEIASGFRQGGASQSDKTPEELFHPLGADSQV
Put plainly: Blockade of rat Glut1 expressed in CHO cells assessed as inhibition of 2-[1,2-3H(N)]deoxy-D-glucose uptake by scintillation spectrometry. The assay is classed as cell-based.

The target in assay [19] is T1, Solute carrier family 2, facilitated glucose transporter member 1 (Rattus norvegicus). Put plainly: Blockade of rat Glut1 expressed in CHO cells assessed as inhibition of [14C]dehydroascorbic acid uptake by scintillation spectrometry. The assay is classed as cell-based.
Assay [20] concerns the target T2, Solute carrier family 2, facilitated glucose transporter member 3 (Homo sapiens) (UniProt P11169).
T2 sequence (whole entry): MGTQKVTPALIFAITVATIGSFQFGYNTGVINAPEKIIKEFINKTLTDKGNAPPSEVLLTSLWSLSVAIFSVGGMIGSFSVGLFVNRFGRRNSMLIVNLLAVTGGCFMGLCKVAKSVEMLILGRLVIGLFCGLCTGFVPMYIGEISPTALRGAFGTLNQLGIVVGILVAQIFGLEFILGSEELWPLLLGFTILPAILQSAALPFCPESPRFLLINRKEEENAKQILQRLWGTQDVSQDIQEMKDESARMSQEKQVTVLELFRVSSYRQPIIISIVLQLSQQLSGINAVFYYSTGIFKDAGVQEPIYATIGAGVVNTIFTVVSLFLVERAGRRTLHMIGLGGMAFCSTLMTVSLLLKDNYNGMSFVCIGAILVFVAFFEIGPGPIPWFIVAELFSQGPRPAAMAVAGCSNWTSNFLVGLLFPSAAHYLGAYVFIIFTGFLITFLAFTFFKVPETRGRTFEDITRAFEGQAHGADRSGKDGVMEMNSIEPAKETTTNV
Put plainly: Blockade of human Glut3 expressed in CHO cells assessed as inhibition of 2-[1,2-3H(N)]deoxy-D-glucose uptake by scintillation spectrometry. The assay is classed as cell-based.

For assay [21], the target named is T2, Solute carrier family 2, facilitated glucose transporter member 3 (Homo sapiens). Put plainly: Blockade of human Glut3 expressed in CHO cells assessed as inhibition of [14C]dehydroascorbic acid uptake by scintillation spectrometry. The assay is classed as cell-based.

pKi: −log10 of the molar value. Active and inactive are the calls of the source. The calls are words filed in the database; no cut-off is given here.

In general, inhibition refers to the drop in the measured response relative to a control, in per cent. As a reminder, the pKi is −log10 of the Ki, conventionally taken in molar units. A higher pKi goes with a small Ki.

For `Oc1ccc(/C=C/c2cc(O)cc(O)c2)cc1` [RESVERATROL], the inhibition at 73 µM in the assay on U-937 [1] is 50%. In addition, in the assay on HL-60 [2], the inhibition at 75 µM worked out at 50%. The pKi in the assay with U-937 [3] was 4.05; in the assay with HL-60 [4], 4.07; in the assay on U-937 [15], 4.46. Further, the outcome (in the assay on U-937 [5]; with HL-60 [6]; in the assay on U-937 [16]; with HL-60 [17]; in [18]; in [19]) was Active. In addition, the result in [20] and in assay [21] was Active. Besides, the “inhibition (INH)” value in the assay on U-937 [7] was 20%; with HL-60 [8], 20%; in the assay with U-937 [9] it was 10%; in the assay on HL-60 [10] it was 10%. Moreover, the Activity result with U-937 [11] and in the assay with HL-60 [12] was “Dose-dependent effect” in each case. The inhibition at 38 µM in the assay with U-937 [13] is 50%. Further, in the assay on HL-60 [14], the inhibition at 32 µM is 50%.

The values are drawn from ChEMBL document CHEMBL1150577, “Inhibition of glucose and dehydroascorbic acid uptakes by resveratrol in human transformed myelocytic cells” (J Nat Prod, 2001).
